Assays:
NAD metabolome in CSF = experiment: CSF metabolomics (LC-MS); type: in vivo, human; details: all NR-recipients; oral NR 1000 mg/day, 30 days
Protocol: Biological material was collected at both visits, following a minimum 6-hour fasting and within 6 hours after study drug intake for visit 2. Sampling included whole blood, serum, peripheral blood mononuclear cells (PBMCs), cerebrospinal fluid (CSF) and muscle biopsy. Lumbar puncture was performed according to standard clinical procedures to collect 10 ml CSF. Needle biopsy of the vastus lateralis muscle was performed using a Bard Magnum biopsy gun (BD©, United States) and 12G×10 cm biopsy needles. Muscle biopsies were immediately dissected to remove any non-muscle tissue (e.g., fat or fascia) and snap-frozen in liquid nitrogen.
The extraction of metabolites from CSF samples was carried out as follows: 400 μl of each sample were mixed with 1600 μl of ice-cold UHPLC grade methanol. […] Recovery rate was tested for several relevant nucleotides and determined to be 93-96%, depending on the nucleotide.
Metabolite analysis was conducted using a Dionex UltiMate 3000 instrument coupled with an electrospray ionization (ESI) QExactive mass spectrometer (Thermo Scientific). […] Mass spectra were recorded using targeted single ion monitoring with an isolation window of 10 m/z with automatic gain control set to a target of […] and a maximum accumulation time of 300 ms. […] Absolute concentrations were calculated by external calibration curves using pure standards. […]

individuals with PD = experiment: Phase II trial, brain MRI at baseline and week 52 (Example 3); type: in vivo, human; details: 80 individuals who completed 52 weeks (1000 mg NR or placebo, blinded)
Protocol: To further test NR as a neuroprotective therapy for PD, and in particular to assess NR in delaying nigrostriatal degeneration or denervation, and clinical disease progression in patients with early PD, a multi-centre phase II randomized double-blinded clinical trial is performed, comparing NR to placebo in individuals with early stage PD.
Each capsule of NR contains 250 mg of NR. Patients are administered orally 2 capsules (each 250 mg) two times a day (1000 mg daily total) for the duration of the study (52 weeks). Placebo capsules are administered similarly (2 capsules two times a day). The study medication is to be taken every day during the treatment period, including prior to study visits and imaging.
The present study is a randomized, double-blind phase 11 trial, where a total of 400 individuals with PD receive 1000 mg NR or placebo for a period of 52 weeks. Extensive medical testing and screening, including brain MRI, is performed both at baseline and end-of-study (i.e., after 52 weeks of exposure). […] The therapy can therefore be considered not to be associated with an increase in glioma or brain neoplasm prevalence over the duration of treatment.

patients with ALS = details: de la Rubia et al. 2019; cited from earlier work
drosophila fly models = details: Schöndorf et al. 2018; cited from earlier work

For NC(=O)c1ccc[n+]([C@@H]2O[C@H](CO)[C@@H](O)[C@H]2O)c1 [NR, nicotinamide riboside], the “CSF Me-2-PY levels” value (NAD metabolome in CSF) is listed as “increase”, the “cases of glioma or other brain neoplasms on brain MRI” value (individuals with PD) is listed as “no cases of glioma or any other brain neoplasms” and the “clinical effect in patients with ALS” value (patients with ALS) is listed as “substantial clinical improvement”. For the same molecule, the “mitochondrial defects and dopaminergic neuronal loss in drosophila fly models” value (drosophila fly models) was “rescues mitochondrial defects and age-related dopaminergic neuronal loss”.

From patent US20240366648A1, “NAD-AUGMENTATION THERAPY FOR PARKINSON'S DISEASE” (Vestlandets Innovasjonsselskap AS (VIS), priority 2021, published 2024)
